Measurements reported in patent publication US12479847B2 (DANA-FARBER CANCER INSTITUTE, INC., priority 2019, dated 2025).

Key:
Assay in all cases: KINOMEscan (ScanMAX) kinase profiling
Format in all cases: binding
[1] = target: T1, panel of 468 kinases (Homo sapiens, UniProt P08631); settings: HCK; 1 μM; read-out: % control
T1 construct: purchased KINOMEscan (ScanMAX) service

[2] = target: T2, panel of 468 kinases (Homo sapiens, UniProt P42336, E542K); settings: PIK3CA(E542K); 1 μM; read-out: % control
T2 construct: purchased KINOMEscan (ScanMAX) service

[3] = target: T3, panel of 468 kinases (Homo sapiens, UniProt Q00526); settings: CDK3; 1 μM; read-out: % control
T3 construct: purchased KINOMEscan (ScanMAX) service

[4] = target: T4, panel of 468 kinases (Homo sapiens, UniProt Q02156); settings: PRKCE; 1 μM; read-out: % control
T4 construct: purchased KINOMEscan (ScanMAX) service
T4 sequence (Q02156 1-737): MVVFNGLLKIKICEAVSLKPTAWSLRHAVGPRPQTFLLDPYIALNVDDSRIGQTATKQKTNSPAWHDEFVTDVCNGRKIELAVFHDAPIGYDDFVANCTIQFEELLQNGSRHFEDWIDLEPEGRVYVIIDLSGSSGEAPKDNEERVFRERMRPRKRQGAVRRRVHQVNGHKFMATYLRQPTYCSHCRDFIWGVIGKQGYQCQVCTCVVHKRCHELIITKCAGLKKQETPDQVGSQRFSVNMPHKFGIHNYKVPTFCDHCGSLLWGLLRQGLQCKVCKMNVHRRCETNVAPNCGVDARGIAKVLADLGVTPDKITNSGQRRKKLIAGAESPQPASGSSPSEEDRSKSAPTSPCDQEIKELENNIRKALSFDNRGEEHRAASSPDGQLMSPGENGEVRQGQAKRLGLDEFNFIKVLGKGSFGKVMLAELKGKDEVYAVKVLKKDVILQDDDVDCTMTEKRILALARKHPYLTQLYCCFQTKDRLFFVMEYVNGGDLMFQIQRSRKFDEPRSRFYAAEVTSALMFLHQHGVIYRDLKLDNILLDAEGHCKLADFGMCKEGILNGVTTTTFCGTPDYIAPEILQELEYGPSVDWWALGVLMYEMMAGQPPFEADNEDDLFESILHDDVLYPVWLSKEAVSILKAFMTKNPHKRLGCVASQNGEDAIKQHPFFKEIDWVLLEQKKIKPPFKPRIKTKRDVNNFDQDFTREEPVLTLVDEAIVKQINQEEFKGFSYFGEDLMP

[5] = target: T5, panel of 468 kinases (Homo sapiens, UniProt Q08345); settings: DDR1; 1 μM; read-out: % control
T5 construct: purchased KINOMEscan (ScanMAX) service

[6] = target: T6, panel of 468 kinases (Homo sapiens, UniProt Q13188); settings: MST2; 1 μM; read-out: % control
T6 construct: purchased KINOMEscan (ScanMAX) service
T6 sequence (Q13188 1-491): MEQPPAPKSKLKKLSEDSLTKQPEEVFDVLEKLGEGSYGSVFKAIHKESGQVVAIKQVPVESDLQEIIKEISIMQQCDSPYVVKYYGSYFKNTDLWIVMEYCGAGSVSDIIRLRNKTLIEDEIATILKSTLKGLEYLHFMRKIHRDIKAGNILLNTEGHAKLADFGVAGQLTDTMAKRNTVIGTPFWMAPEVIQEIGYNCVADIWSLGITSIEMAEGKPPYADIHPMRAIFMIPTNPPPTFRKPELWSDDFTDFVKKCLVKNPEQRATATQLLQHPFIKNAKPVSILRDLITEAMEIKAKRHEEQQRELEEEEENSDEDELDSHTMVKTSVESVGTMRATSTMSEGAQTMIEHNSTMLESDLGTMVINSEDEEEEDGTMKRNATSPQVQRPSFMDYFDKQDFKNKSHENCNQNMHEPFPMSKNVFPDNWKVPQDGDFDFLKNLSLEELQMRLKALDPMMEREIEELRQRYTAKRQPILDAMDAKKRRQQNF

[7] = target: T7, panel of 468 kinases (Homo sapiens, UniProt Q15375); settings: EPHA7; 1 μM; read-out: % control
T7 construct: purchased KINOMEscan (ScanMAX) service

[8] = target: T8, panel of 468 kinases (Homo sapiens, UniProt Q59H18); settings: TNNI3K; 1 μM; read-out: % control
T8 construct: purchased KINOMEscan (ScanMAX) service
T8 sequence (Q59H18 1-835): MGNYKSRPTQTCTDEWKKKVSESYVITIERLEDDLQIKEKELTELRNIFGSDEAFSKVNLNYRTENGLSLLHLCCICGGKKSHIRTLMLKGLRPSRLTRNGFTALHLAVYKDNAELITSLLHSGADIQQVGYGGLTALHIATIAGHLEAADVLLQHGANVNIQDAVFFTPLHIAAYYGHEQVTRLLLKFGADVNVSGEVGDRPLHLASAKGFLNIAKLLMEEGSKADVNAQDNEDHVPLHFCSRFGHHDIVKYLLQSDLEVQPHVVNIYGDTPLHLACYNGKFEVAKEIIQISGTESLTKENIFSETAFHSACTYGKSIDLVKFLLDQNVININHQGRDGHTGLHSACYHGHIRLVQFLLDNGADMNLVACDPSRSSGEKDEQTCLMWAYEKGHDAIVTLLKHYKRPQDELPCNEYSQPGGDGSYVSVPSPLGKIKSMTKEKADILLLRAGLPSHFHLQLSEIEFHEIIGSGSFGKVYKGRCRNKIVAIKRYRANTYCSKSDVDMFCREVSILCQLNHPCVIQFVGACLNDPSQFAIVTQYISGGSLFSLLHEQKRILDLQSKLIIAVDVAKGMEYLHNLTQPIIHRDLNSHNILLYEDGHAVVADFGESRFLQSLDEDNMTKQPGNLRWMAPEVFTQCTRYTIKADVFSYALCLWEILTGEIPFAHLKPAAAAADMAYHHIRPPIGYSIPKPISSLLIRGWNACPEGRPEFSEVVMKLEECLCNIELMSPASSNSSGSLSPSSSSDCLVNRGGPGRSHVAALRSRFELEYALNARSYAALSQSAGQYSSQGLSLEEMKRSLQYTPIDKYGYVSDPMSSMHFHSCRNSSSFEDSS

T7 sequence (Q15375 28-998): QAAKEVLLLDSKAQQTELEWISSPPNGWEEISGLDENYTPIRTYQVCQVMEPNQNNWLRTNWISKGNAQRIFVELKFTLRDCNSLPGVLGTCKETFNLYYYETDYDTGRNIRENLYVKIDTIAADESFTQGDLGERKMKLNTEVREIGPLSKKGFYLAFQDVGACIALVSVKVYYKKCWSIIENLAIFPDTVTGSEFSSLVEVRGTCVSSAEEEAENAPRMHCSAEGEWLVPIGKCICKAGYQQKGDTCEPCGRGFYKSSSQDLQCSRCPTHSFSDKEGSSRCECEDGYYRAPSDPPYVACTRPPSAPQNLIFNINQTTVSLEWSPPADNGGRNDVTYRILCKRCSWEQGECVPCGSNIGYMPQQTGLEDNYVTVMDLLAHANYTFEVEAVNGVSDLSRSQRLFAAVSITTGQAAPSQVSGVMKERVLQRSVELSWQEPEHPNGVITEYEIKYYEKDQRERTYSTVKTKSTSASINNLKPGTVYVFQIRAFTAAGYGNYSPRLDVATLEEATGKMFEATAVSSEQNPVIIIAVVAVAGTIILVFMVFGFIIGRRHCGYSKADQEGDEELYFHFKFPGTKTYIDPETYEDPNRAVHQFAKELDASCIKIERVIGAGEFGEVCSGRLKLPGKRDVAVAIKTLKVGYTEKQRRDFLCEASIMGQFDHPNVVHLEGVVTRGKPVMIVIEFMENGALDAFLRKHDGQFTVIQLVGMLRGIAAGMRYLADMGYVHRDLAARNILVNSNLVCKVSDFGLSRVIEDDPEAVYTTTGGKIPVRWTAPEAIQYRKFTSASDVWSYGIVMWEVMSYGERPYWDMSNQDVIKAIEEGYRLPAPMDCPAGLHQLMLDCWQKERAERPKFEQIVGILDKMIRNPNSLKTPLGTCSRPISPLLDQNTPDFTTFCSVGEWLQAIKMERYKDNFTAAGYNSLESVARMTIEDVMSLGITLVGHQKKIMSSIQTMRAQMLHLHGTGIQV
T2 sequence (P42336 whole entry E542K): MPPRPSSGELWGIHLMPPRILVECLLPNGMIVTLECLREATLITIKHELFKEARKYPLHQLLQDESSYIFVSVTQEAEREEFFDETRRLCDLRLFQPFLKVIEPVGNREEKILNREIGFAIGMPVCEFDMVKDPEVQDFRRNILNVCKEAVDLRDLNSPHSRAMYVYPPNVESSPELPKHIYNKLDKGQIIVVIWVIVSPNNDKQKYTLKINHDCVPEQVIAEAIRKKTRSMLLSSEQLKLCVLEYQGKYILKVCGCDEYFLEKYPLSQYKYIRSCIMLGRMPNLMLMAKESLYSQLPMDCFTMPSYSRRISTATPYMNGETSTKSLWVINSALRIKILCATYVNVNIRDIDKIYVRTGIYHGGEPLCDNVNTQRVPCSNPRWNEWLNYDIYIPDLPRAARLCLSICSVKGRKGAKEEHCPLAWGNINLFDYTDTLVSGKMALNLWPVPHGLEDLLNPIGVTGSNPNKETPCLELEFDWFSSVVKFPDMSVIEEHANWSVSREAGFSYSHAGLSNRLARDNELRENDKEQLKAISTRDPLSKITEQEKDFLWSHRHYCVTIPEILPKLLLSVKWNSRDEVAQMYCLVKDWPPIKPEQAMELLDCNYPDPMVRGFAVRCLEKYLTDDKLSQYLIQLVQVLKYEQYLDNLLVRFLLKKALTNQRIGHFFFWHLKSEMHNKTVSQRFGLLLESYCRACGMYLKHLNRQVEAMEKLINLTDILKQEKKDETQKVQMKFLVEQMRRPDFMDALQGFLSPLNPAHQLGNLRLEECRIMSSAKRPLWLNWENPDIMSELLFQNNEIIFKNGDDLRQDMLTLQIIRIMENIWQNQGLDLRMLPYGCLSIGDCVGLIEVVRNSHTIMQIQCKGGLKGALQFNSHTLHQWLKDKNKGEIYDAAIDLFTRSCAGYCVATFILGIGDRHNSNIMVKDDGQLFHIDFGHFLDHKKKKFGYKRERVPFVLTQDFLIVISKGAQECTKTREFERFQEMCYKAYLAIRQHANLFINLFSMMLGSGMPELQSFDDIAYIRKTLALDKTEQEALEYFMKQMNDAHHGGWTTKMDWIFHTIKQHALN
T3 sequence (Q00526 whole entry): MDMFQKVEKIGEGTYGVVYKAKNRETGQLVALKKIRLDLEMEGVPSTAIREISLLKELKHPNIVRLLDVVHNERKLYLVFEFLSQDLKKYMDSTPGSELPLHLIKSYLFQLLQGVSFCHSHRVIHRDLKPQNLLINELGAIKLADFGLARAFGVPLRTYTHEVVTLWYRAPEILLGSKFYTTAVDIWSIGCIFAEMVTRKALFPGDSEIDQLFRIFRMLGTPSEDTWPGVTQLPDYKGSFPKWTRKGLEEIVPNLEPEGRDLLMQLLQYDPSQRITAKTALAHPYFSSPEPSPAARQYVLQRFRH
T1 sequence (P08631 whole entry): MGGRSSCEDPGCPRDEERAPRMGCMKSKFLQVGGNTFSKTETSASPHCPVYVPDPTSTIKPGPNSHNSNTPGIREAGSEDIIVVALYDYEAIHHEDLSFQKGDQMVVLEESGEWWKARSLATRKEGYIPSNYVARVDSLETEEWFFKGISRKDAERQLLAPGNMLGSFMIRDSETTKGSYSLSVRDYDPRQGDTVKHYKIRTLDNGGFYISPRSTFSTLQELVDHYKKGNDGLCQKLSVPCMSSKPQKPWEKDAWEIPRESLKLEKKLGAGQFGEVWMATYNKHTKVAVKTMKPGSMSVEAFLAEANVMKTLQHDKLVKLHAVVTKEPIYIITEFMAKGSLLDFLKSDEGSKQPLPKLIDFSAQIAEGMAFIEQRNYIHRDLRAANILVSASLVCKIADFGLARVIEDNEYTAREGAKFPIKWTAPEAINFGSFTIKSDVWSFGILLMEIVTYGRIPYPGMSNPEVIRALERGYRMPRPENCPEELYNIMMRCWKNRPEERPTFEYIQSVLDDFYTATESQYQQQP
T5 sequence (Q08345 19-913): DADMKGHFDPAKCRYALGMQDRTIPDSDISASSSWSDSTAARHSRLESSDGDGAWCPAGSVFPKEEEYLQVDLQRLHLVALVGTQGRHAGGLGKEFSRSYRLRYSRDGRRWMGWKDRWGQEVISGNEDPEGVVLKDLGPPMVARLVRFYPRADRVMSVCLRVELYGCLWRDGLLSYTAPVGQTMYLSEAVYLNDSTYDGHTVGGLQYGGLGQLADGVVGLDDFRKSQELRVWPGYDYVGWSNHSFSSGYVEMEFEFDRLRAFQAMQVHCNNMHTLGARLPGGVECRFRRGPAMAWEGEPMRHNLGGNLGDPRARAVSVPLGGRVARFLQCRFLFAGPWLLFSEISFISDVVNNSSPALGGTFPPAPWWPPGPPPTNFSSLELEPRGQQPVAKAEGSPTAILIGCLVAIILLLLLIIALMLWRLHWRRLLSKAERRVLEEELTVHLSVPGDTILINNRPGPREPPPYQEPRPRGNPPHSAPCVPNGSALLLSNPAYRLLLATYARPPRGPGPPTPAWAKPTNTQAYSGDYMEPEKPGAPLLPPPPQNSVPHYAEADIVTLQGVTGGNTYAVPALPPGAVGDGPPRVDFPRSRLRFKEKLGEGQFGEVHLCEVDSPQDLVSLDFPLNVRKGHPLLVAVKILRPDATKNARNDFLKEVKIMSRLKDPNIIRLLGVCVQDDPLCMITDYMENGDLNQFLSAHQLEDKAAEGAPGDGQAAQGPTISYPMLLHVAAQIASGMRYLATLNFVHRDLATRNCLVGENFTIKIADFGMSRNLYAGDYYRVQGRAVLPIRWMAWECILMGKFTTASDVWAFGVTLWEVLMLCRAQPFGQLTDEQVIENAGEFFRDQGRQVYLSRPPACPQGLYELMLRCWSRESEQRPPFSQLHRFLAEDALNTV

Row | Structure (SMILES) | remaining binding at 1 µM [1] [%] | remaining binding at 1 µM [2] [%] | remaining binding at 1 µM [3] [%] | remaining binding at 1 µM [4] [%] | remaining binding at 1 µM [5] [%] | remaining binding at 1 µM [6] [%] | remaining binding at 1 µM [7] [%] | remaining binding at 1 µM [8] [%]
1 | CNc1nc(Nc2ccc(C(=O)N3CCC(N4CCOCC4)CC3)c3c2OCO3)nc2[nH]cc(Cl)c12 [Compound 75, (7-((5-chloro-4-(methylamino)-7H-pyrrolo[2,3-d]pyrimidin-2-yl)amino)benzo[d][1,3]dioxol-4-yl)(4-morpholinopiperidin-1-yl)methanone] | 100 | 78 | 98 | 73 | 100 | 45 | 100 | 100
2 | CNc1nc(Nc2ccc(S(=O)(=O)N3CCC(N4CCOCC4)CC3)cc2OC)nc2[nH]cc(Cl)c12 [Compound 12, 5-chloro-N2-(2-methoxy-4-((4-morpholinopiperidin-1-yl)sulfonyl)phenyl)-N4-methyl-7H-pyrrolo[2,3-d]pyrimidine-2,4-diamine] | 98 | 65 | 86 | 62 | 100 | 100 | 100 | 100
3 | CNc1nc(Nc2ccc(P3(=O)CCN(C4CCOCC4)CC3)cc2OC)nc2[nH]cc(Cl)c12 [Compound 77, 4-(4-((5-chloro-4-(methylamino)-7H-pyrrolo[2,3-d]pyrimidin-2-yl)amino)-3-methoxyphenyl)-1-(tetrahydro-2H-pyran-4-yl)-1,4-azaphosphinane 4-oxide] | 100 | 67 | 95 | 87 | 100 | 100 | 100 | 100
